Assay results from publication PMC11289455 (Scientific Reports, 2024).
Like-named read-outs stand apart in the source and are kept apart here.

Key:
[1] = biological target: T1, M1 (muscarinic acetylcholine receptor M1) (Homo sapiens, UniProt P11229); test: SafetyScreen44: M1; format: binding
T1 construct: purchased Eurofins Cerep SafetyScreen44
T1 sequence (P11229 1-460): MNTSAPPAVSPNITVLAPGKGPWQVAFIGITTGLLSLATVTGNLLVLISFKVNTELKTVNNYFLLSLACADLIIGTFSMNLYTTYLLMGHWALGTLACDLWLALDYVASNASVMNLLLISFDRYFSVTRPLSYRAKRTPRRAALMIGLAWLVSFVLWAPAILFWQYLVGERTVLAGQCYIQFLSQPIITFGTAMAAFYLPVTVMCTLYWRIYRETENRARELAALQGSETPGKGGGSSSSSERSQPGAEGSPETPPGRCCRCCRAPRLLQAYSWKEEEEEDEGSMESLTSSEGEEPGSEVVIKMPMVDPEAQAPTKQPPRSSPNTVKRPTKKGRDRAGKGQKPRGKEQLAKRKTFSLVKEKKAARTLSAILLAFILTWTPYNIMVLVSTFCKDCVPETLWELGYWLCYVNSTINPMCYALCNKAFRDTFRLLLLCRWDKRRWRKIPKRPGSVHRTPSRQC

[2] = biological target: T2, CB2 (cannabinoid receptor type 2) (Homo sapiens, UniProt P34972); test: SafetyScreen44: CB2; format: binding
T2 construct: purchased Eurofins Cerep SafetyScreen44
T2 sequence (P34972 whole entry): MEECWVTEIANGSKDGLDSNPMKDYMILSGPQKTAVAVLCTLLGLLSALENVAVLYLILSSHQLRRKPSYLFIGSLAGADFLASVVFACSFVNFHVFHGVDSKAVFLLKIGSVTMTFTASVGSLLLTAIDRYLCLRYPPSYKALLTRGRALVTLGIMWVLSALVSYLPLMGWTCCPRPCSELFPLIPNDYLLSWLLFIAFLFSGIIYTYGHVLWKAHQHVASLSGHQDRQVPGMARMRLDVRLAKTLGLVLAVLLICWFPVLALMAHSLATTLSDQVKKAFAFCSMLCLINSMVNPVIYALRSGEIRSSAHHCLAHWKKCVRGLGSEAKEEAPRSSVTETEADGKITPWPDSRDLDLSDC

[3] = biological target: T3, acetylcholinesterase (Homo sapiens, UniProt P22303); test: SafetyScreen44: acetylcholinesterase; format: biochemical
T3 construct: purchased Eurofins Cerep SafetyScreen44
T3 sequence (P22303 32-614): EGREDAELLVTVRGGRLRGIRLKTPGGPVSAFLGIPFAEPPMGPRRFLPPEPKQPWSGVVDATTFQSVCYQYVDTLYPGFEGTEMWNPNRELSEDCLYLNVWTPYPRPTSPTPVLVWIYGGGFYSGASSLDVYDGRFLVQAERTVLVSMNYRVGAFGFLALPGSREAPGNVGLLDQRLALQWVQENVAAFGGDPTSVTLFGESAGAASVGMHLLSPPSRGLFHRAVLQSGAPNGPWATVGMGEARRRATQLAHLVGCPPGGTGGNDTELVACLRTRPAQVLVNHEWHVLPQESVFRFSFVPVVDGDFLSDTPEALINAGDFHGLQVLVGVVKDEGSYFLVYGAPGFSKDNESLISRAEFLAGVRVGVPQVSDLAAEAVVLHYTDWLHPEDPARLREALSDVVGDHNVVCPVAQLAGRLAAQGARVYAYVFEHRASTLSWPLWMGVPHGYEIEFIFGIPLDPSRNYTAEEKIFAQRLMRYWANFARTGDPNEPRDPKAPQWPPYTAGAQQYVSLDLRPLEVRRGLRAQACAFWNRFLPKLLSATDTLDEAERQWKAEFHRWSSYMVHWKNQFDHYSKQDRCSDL

[4] = biological target: T4, 5-HT transporter (Homo sapiens, UniProt P31645); test: SafetyScreen44: 5-HT transporter; format: binding
T4 construct: purchased Eurofins Cerep SafetyScreen44
T4 sequence (P31645 whole entry): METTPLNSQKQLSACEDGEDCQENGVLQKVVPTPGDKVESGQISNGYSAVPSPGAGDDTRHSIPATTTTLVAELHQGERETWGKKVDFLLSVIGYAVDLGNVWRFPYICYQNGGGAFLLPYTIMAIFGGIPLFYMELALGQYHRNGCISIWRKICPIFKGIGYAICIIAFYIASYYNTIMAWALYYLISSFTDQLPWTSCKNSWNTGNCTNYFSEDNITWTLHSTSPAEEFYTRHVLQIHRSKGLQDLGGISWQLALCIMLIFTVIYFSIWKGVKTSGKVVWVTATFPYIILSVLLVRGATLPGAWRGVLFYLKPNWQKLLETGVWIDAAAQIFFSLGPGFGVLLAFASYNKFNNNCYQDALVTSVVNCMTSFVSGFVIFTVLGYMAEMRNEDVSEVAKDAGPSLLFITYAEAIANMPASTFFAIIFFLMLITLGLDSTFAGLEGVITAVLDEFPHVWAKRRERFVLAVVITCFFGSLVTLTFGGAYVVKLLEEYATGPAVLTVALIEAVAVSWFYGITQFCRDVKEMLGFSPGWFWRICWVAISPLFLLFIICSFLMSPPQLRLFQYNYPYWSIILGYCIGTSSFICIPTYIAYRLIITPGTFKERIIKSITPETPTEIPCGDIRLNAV

[5] = First-in-human study, pharmacokinetics; format: in vivo; details: healthy participants
Procedure: The purpose of the first-in-human, single-center, randomized, double-blind, placebo-controlled study was to determine the safety, tolerability, pharmacokinetics, and pharmacodynamics of JNJ-77242113 in healthy participants. […] AEs were coded using the Medical Dictionary for Regulatory Activities (Version 23.1).
Whole blood samples were collected in TruCulture Tubes containing 10 ng/mL IL-2 and 20 ng/mL IL-18 with or without additional IL-23 (0.5 ng/mL, R&D Systems/Biotechne). […] IFNγ was quantified via the V-Plex-plus human IFNγ kit (MSD).
Mean concentration–time profiles for each treatment/dose group were presented graphically. Descriptive statistics were used to describe demographic and safety data.

[6] = biological target: T5, PDE4D2 (cAMP-specific 3’,5’-cyclic phosphodiesterase 4D2) (Homo sapiens, UniProt Q08499); test: SafetyScreen44: PDE4D2; format: biochemical
T5 construct: purchased Eurofins Cerep SafetyScreen44
T5 sequence (Q08499 303-809 limits assumed): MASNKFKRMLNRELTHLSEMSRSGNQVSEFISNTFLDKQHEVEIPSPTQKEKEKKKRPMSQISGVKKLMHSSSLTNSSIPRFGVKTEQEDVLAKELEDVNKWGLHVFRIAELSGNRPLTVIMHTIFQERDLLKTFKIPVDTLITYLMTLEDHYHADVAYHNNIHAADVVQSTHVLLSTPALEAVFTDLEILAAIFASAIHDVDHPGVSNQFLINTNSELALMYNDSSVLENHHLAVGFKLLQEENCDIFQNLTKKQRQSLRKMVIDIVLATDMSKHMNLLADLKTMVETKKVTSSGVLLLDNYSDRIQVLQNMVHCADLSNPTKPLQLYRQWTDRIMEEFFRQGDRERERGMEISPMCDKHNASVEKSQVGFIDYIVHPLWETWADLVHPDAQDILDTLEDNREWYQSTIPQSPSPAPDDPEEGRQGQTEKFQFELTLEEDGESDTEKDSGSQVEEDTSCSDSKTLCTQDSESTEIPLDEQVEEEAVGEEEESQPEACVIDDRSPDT

[7] = biological target: T6, GR (glucocorticoid receptor) (Homo sapiens, UniProt P04150); test: SafetyScreen44: GR; format: binding
T6 construct: purchased Eurofins Cerep SafetyScreen44
T6 sequence (P04150 1-777): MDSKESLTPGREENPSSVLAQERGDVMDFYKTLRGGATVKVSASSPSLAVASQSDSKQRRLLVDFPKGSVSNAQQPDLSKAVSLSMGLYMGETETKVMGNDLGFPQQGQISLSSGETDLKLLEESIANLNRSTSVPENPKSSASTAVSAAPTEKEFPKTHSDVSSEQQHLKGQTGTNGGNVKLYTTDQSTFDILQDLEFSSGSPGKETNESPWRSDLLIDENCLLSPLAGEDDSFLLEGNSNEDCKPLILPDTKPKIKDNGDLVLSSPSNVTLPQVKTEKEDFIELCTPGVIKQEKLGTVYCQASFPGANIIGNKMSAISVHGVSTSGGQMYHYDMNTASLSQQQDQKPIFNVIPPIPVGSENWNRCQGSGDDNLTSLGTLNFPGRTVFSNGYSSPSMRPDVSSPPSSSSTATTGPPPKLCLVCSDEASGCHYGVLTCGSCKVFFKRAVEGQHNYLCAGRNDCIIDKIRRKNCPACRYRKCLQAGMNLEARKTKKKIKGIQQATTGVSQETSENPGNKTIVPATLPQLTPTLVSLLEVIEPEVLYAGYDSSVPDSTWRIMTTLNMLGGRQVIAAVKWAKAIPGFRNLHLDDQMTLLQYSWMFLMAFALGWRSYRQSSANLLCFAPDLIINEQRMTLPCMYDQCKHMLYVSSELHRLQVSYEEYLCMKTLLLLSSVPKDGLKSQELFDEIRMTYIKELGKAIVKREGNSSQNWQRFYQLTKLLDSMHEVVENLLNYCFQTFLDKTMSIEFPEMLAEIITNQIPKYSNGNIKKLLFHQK

[8] = biological target: T7, CCK1 (CCKA) (cholecystokinin 1 receptor) (Homo sapiens, UniProt P32238); test: SafetyScreen44: CCK1 (CCKA); format: binding
T7 construct: purchased Eurofins Cerep SafetyScreen44
T7 sequence (P32238 1-428): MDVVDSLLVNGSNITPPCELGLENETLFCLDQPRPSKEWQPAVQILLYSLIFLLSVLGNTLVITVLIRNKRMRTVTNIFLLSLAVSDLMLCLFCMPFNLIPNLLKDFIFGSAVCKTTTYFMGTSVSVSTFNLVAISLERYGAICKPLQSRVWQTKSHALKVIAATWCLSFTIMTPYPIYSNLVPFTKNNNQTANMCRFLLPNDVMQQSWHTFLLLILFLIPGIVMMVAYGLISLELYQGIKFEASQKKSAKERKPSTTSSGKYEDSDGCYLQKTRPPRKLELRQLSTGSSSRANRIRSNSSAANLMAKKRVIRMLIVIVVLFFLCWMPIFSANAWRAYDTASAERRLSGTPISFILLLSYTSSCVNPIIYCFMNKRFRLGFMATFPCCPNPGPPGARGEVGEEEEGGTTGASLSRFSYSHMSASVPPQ

[9] = Part 2 (MAD), once daily oral dosing for 10 days

Question: Which inhibition at 10 µM ([1]; 1st run, read-out: Percent inhibition of control ligand binding, M1, 1st run) does the source give for `CC(=O)NCCCC[C@@H]1NC(=O)[C@H](Cc2c[nH]c3c(C)cccc23)NC(=O)[C@H]([C@@H](C)O)NC(=O)[C@H](CC(N)=O)NC(=O)[C@@H](NC(C)=O)C(C)(C)SSC(C)(C)[C@@H](C(=O)N[C@@H](Cc2ccc(OCCN)cc2)C(=O)N[C@@H](Cc2ccc3ccccc3c2)C(=O)NC2(C(=O)N[C@@H](CCC(=O)O)C(=O)N[C@@H](CC(N)=O)C(=O)N[C@@H](Cc3cccnc3)C(=O)N(C)CC(N)=O)CCOCC2)NC1=O` [JNJ-77242113, S^3,1,S^3,6-cyclo[N-acetyl-3-sulfanyl-L-valyl-L-asparaginyl-L-threonyl-7-methyl-L-tryptophyl-N^6-acetyl-L-lysyl-3-sulfanyl-L-valyl-O-(2-aminoethyl)-L-tyrosyl-3-(naphthalen-2-yl)-L-alanyl-4-aminooxan-4-carbonyl-L-α-glutamyl-L-asparaginyl-3-(pyridin-3-yl)-L-alanyl-N^2-methylglycinamide]] here?
Answer: -4.1%

Question: And the inhibition at 10 µM ([1]; 2nd run, read-out: Percent inhibition of control ligand binding, M1, 2nd run)?
Answer: 3.3%

Question: What about the inhibition at 10 µM ([1]; mean of 2 runs, read-out: Percent inhibition of control ligand binding, M1, Mean) of the same molecule?
Answer: -0.4%

Question: And the inhibition at 10 µM ([2]; 1st run, read-out: Percent inhibition of control ligand binding, CB2, 1st run)?
Answer: -4.9%

Question: What about the inhibition at 10 µM ([2]; 2nd run, read-out: Percent inhibition of control ligand binding, CB2, 2nd run) of the same molecule?
Answer: -5.8%

Question: And the inhibition at 10 µM ([2]; mean of 2 runs, read-out: Percent inhibition of control ligand binding, CB2, Mean)?
Answer: -5.4%

Question: And the inhibition at 10 µM ([3]; 1st run, read-out: Percent inhibition of control ligand binding, acetylcholinesterase, 1st run)?
Answer: 9.8%

Question: What about the inhibition at 10 µM ([3]; 2nd run, read-out: Percent inhibition of control ligand binding, acetylcholinesterase, 2nd run) of the same molecule?
Answer: 2.2%

Question: And the inhibition at 10 µM ([3]; mean of 2 runs, read-out: Percent inhibition of control ligand binding, acetylcholinesterase, Mean)?
Answer: 6%

Question: And the inhibition at 10 µM ([4]; 1st run, read-out: Percent inhibition of control ligand binding, 5-HT transporter, 1st run)?
Answer: -19.9%

Question: What about the inhibition at 10 µM ([4]; 2nd run, read-out: Percent inhibition of control ligand binding, 5-HT transporter, 2nd run) of the same molecule?
Answer: 1.4%

Question: What about the inhibition at 10 µM ([4]; mean of 2 runs, read-out: Percent inhibition of control ligand binding, 5-HT transporter, Mean) of the same molecule?
Answer: -9.2%

Question: What about the “Plasma exposure versus dose (in words)” value ([5]; 100-fold dose range of 10 to 1000 mg oral) of the same molecule?
Answer: Dose-proportional plasma exposure

Question: And the “Accumulation for AUC, Day 1 versus Day 10” value [5, 9]?
Answer: 0.9 to 1.5

Question: And the “Accumulation for Cmax, Day 1 versus Day 10” value [5, 9]?
Answer: 0.7 to 1.6

Question: What about the “Estimated terminal elimination half-life” value ([5]; oral 10 to 1000 mg, plasma LC–MS/MS) of the same molecule?
Answer: 9 to 16 h

Question: And the inhibition at 10 µM ([6]; 1st run, read-out: Percent inhibition of control ligand binding, PDE4D2, 1st run)?
Answer: -22.6%

Question: And the inhibition at 10 µM ([6]; 2nd run, read-out: Percent inhibition of control ligand binding, PDE4D2, 2nd run)?
Answer: -11.7%

Question: What about the inhibition at 10 µM ([6]; mean of 2 runs, read-out: Percent inhibition of control ligand binding, PDE4D2, Mean) of the same molecule?
Answer: -17.1%

Question: And the inhibition at 10 µM ([7]; 1st run, read-out: Percent inhibition of control ligand binding, GR, 1st run)?
Answer: 3.5%

Question: What about the inhibition at 10 µM ([7]; 2nd run, read-out: Percent inhibition of control ligand binding, GR, 2nd run) of the same molecule?
Answer: -0.8%

Question: What about the inhibition at 10 µM ([7]; mean of 2 runs, read-out: Percent inhibition of control ligand binding, GR, Mean) of the same molecule?
Answer: 1.3%

Question: And the inhibition at 10 µM ([8]; 1st run, read-out: Percent inhibition of control ligand binding, CCK1 (CCKA), 1st run)?
Answer: -29.4%

Question: What about the inhibition at 10 µM ([8]; 2nd run, read-out: Percent inhibition of control ligand binding, CCK1 (CCKA), 2nd run) of the same molecule?
Answer: -12.3%

Question: What about the inhibition at 10 µM ([8]; mean of 2 runs, read-out: Percent inhibition of control ligand binding, CCK1 (CCKA), Mean) of the same molecule?
Answer: -20.8%
